# Calls of active or inactive are those of the source. The rule behind the calls is not given here.
# Legend:
# U-937 = test: Antiproliferative activity against human U-937 cells assessed as cell growth inhibition after 72 hrs by CCK8 assay; format: functional, cell-based; conditions: U-937, 72 h
# A549 = test: Antiproliferative activity against human A549 cells assessed as cell growth inhibition after 72 hrs by SRB assay; format: functional, cell-based; conditions: A549, 72 h
# MGC-803 [1] = test: Antiproliferative activity against human MGC-803 cells assessed as cell growth inhibition after 72 hrs by SRB assay; format: functional, cell-based; conditions: MGC-803, 72 h
# HEK-293T = test: Cytotoxicity against human HEK293T cells assessed as reduction in cell viability; format: cell-based
# THP-1 = test: Cytotoxicity against human THP-1 cells assessed as reduction in cell viability; format: cell-based
# Tubulin (Homo sapiens) = Tubulin (Homo sapiens) (UniProt P68371+Q9H4B7+P0DPH7+P68366+Q13509+Q71U36+P04350+Q3ZCM7+P07437+P68363+Q9BQE3+Q6PEY2+Q13885+Q9BVA1+Q9BUF5); test: Inhibition of tubulin polymerization in human MGC-803 cells assessed as change in shape of nucleus at 2 to 7.5 nM measured after 48 hrs by Hoechst staining based confocal microscopy analysis; format: cell-based; conditions: dose 2-7.5 nM
# MGC-803 [2] = test: Induction of cell cycle arrest in human MGC-803 cells assessed as accumulation at G2/M phase at 30 nM incubated for 24 hrs by propidium iodide staining based flow cytometry (reference value: 37.03 %); format: functional
# MGC-803 [3] = test: Induction of cell cycle arrest in human MGC-803 cells assessed as accumulation at S phase at 15 nM incubated for 24 hrs by propidium iodide staining based flow cytometry (reference value: 17.3 %); format: functional
# MGC-803 [4] = test: Induction of cell cycle arrest in human MGC-803 cells assessed as accumulation at S phase at 30 nM incubated for 24 hrs by propidium iodide staining based flow cytometry (reference value: 17.3 %); format: functional
# MGC-803 [5] = test: Induction of cell cycle arrest in human MGC-803 cells assessed as accumulation at G1 phase at 7.5 nM incubated for 24 hrs by propidium iodide staining based flow cytometry (reference value: 45.67 %); format: functional
# MGC-803 [6] = test: Induction of cell cycle arrest in human MGC-803 cells assessed as accumulation at G1 phase at 15 nM incubated for 24 hrs by propidium iodide staining based flow cytometry (reference value: 45.67 %); format: functional
# MGC-803 [7] = test: Induction of cell cycle arrest in human MGC-803 cells assessed as accumulation at G1 phase at 30 nM incubated for 24 hrs by propidium iodide staining based flow cytometry (reference value: 45.67 %); format: functional
# MGC-803 [8] = test: Down regulation of Pcdc2 expression in human MGC-803 cells at 7.5 to 30 nM measured after 24 hrs by Western blot analysis; format: functional, cell-based; conditions: dose 7.5-30 nM
# MGC-803 [9] = test: Induction of apoptosis in human MGC-803 cells assessed as early apoptotic cells at 7.5 nM measured after 48 hrs by Annexin V-APC/PI double staining based flow cytometry assay (reference value: 1.31 %); format: functional, cell-based
# MGC-803 [10] = test: Induction of apoptosis in human MGC-803 cells assessed as late apoptotic cells at 7.5 nM measured after 48 hrs by Annexin V-APC/PI double staining based flow cytometry assay (reference value: 1.05 %); format: functional, cell-based
# MGC-803 [11] = test: Induction of apoptosis in human MGC-803 cells assessed as necrotic cells at 7.5 nM measured after 48 hrs by Annexin V-APC/PI double staining based flow cytometry assay (reference value: 0.57 %); format: functional, cell-based
# MGC-803 [12] = test: Induction of apoptosis in human MGC-803 cells assessed as late apoptotic cells at 15 nM measured after 48 hrs by Annexin V-APC/PI double staining based flow cytometry assay (reference value: 1.05 %); format: functional, cell-based
# MGC-803 [13] = test: Induction of apoptosis in human MGC-803 cells assessed as viable cells at 15 nM measured after 48 hrs by Annexin V-APC/PI double staining based flow cytometry assay (reference value: 92.1 %); format: functional, cell-based
# MGC-803 [14] = test: Induction of apoptosis in human MGC-803 cells assessed as early apoptotic cells at 30 nM measured after 48 hrs by Annexin V-APC/PI double staining based flow cytometry assay (reference value: 1.31 %); format: functional, cell-based
# MGC-803 [15] = test: Induction of apoptosis in human MGC-803 cells assessed as late apoptotic cells at 30 nM measured after 48 hrs by Annexin V-APC/PI double staining based flow cytometry assay (reference value: 1.05 %); format: functional, cell-based
# MGC-803 [16] = test: Induction of apoptosis in human MGC-803 cells assessed as necrotic cells at 30 nM measured after 48 hrs by Annexin V-APC/PI double staining based flow cytometry assay (reference value: 0.57 %); format: functional, cell-based
# MGC-803 [17] = test: Induction of apoptosis in human MGC-803 cells assessed as viable cells at 30 nM measured after 48 hrs by Annexin V-APC/PI double staining based flow cytometry assay (reference value: 92.1 %); format: functional, cell-based
# MGC-803 [18] = test: Induction of apoptosis in human MGC-803 cells assessed as increase in Caspase-3 expression incubated for 24 hrs by Western blot analysis; format: functional, cell-based; conditions: dose 7.5-30 nM
# MGC-803 [19] = test: Induction of apoptosis in human MGC-803 cells assessed as increase in cleaved Caspase-3 expression incubated for 24 hrs by Western blot analysis; format: functional, cell-based; conditions: dose 7.5-30 nM
# MGC-803 [20] = test: Induction of apoptosis in human MGC-803 cells assessed as increase in Caspase-7 expression incubated for 24 hrs by Western blot analysis; format: functional, cell-based; conditions: dose 7.5-30 nM
# MGC-803 [21] = test: Induction of apoptosis in human MGC-803 cells assessed as increase in PARP expression incubated for 24 hrs by Western blot analysis; format: functional, cell-based; conditions: dose 7.5-30 nM
# MGC-803 [22] = test: Induction of apoptosis in human MGC-803 cells assessed as increase in cleaved PARP expression incubated for 24 hrs by Western blot analysis; format: functional, cell-based
# HUVEC = test: Inhibition of cell migration in HUVEC cells assessed as decrease in number of migrated endothelial cells at 5 to 20 nM measured after 48 hrs by transwell analysis; format: functional, cell-based; conditions: Homo sapiens, dose 5-20 nM
# Danio rerio = species on record: Danio rerio; test: Antiangiogenic activity in 30hpf transgenic Tg(flk:EGFP) zebra fish embryos assessed as reduction in number of intersegmental vessels by confocal fluorescence microscopy analysis; format: functional, organism-based; conditions: Embryo, dose 0.1-0.6 µM
# MGC-803 [23] = test: Induction of mitochondrial membrane potential loss in human MGC-803 cells at 7.5 nM after 48 hrs by JC-1 staining based flow cytometric analysis (reference value: 86 %); format: functional
# MGC-803 [24] = test: Induction of mitochondrial membrane potential loss in human MGC-803 cells at 15 nM after 48 hrs by JC-1 staining based flow cytometric analysis (reference value: 86 %); format: functional
# MGC-803 [25] = test: Induction of ROS generation in human MGC-803 cells assessed as intracellular ROS level at 7.5 nM incubated for 24 hrs by DCFH-DA staining based flow cytometric analysis (reference value: 2.72 %); format: functional
# MGC-803 [26] = test: Induction of ROS generation in human MGC-803 cells assessed as intracellular ROS level at 15 nM incubated for 24 hrs by DCFH-DA staining based flow cytometric analysis (reference value: 2.72 %); format: functional
# MGC-803 [27] = test: Antitumor activity against CMTPX- labeled human MGC-803 cells xenografted in zebrafish assessed as inhibition of tumor metastasis measured after 72 hrs by fluorescence microscopic analysis; format: functional, cell-based; conditions: dose 25-100 nM
compound,measurement,setting,value
COc1ccc(/C=C\c2cc(OC)c(OC)c(OC)c2)cc1/C=C/C(=O)Nc1ccccc1N,IC50,U-937,305 nM
same,IC50,A549,191 nM
same,IC50,MGC-803 [1],16 nM
same,IC50,HEK-293T,352 nM
same,IC50,THP-1,195 nM
same,inhibition,Tubulin (Homo sapiens),Active
same,Activity,MGC-803 [2],Dose-Dependent Effect
same,Activity,MGC-803 [2]; record 2,84.19%
same,Activity,MGC-803 [3],12.7%
same,Activity,MGC-803 [4],13.6%
same,Activity,MGC-803 [5],43.58%
same,Activity,MGC-803 [6],39.14%
same,Activity,MGC-803 [7],2.21%
same,Activity,MGC-803 [8],Active
same,Activity,MGC-803 [9],Active
same,Activity,MGC-803 [10],Active
same,Activity,MGC-803 [11],Active
same,Activity,MGC-803 [12],Active
same,Activity,MGC-803 [13],Active
same,Activity,MGC-803 [14],Active
same,Activity,MGC-803 [15],Active
same,Activity,MGC-803 [16],Active
same,Activity,MGC-803 [17],Active
same,Activity,MGC-803 [18],Dose-Dependent Effect
same,Activity,MGC-803 [19],Dose-Dependent Effect
same,Activity,MGC-803 [20],Dose-Dependent Effect
same,Activity,MGC-803 [21],Dose-Dependent Effect
same,Activity,MGC-803 [22],Dose-Dependent Effect
same,inhibition,HUVEC,Active
same,Activity,Danio rerio,Dose-Dependent Effect
same,Activity,MGC-803 [23],82.9%
same,Activity,MGC-803 [24],63.6%
same,Activity,MGC-803 [25],17.4%
same,Activity,MGC-803 [26],26%
same,inhibition,MGC-803 [27],Dose-Dependent Effect
